Tests used:
ICR type mice = assay: General inspection of blood, daily oral administration; format: in vivo, mouse (ICR type); parameters: key: .dwnarw.: Decrease below control; →: No difference from control; .uparw.: Increase above control
Method: Solutions obtained by dissolving the present substance, 24R,25-(OH)2 -D3 in a prescribed concentration in triglyceride of a fatty acid of 8 to 10 carbon atoms containing 1% of ethanol were administered respectively, orally, forcedly and daily to three male-groups and three female-groups of ICR type mice 5 weeks old at dosages of 10, 100, and 1,000 μg/kg.day. The results are compared below with respect to the following items with those obtained of the male- and female-groups using only the solvent without the present substance.

[1] = test system: femurs of male Wister rats; assay: Fracture test of femurs; format: in vivo, rat (Wister); conditions: rat femur, 40 μg/kg orally, 24 months; 20 kg-load cell; control 11.6 ± 2.2
Method: Male Wister rats 4 weeks old were preliminarily kept for 2 weeks. For the subsequent 24 months, the present substance, 24R,25-(OH)2 -D3, was orally administered to the pre-bred rats daily at a dosage of 40 μg/kg.day. Then, the aged rats were sacrificed and their femurs were collected and fractured with an instrument (produced by Iio Denki Co., Ltd. and marketed under trade name of "Rheodynacorder RDR-1500(D)") using a 20 kg-load cell, at a distance of 6.5 mm from the trochanter minor under the condition of a fulcrum interval of 13 mm to determine the power required for the fracture.
As regards the manner of administration, a modified feed was prepared by uniformly dispersing a prescribed amount of the present substance, 24R,25-(OH)2 -D3, in glycine and admixing the resultant dispersing mixture with a marketed feed (produced by Nippon Clea Co., Ltd. under product code of "CE-2") in such a manner as to give a final glycine concentration of 0.5% by weight and the modified feed was consumed by the rats. The administration dosage was calculated on the basis of the actual amount of the feed consumed by the rats.

## C=C1CC[C@H](O)C/C1=C/C=C1\CCC[C@]2(C)[C@@H]([C@H](C)CC[C@@H](O)C(C)(C)O)CC[C@@H]12 [24R,25-(OH)2 -D3]
ICR type mice; female, group IV, 10 μm/kg
  Amount of hemoglobin: →
  Hematocrit value: →
  Number of red blood cells: →
  Number of white blood cells: →
ICR type mice; female, group V, 100 μm/kg
  Amount of hemoglobin: →
  Hematocrit value: →
  Number of red blood cells: →
  Number of white blood cells: →
ICR type mice; female, group VI, 1000 μg/kg
  Amount of hemoglobin: →
  Hematocrit value: →
  Number of red blood cells: →
ICR type mice; female, group VI, 1000 μm/kg
  Number of white blood cells: →
ICR type mice; male, group I, 10 μm/kg
  Amount of hemoglobin: →
  Hematocrit value: →
  Number of red blood cells: →
  Number of white blood cells: →
ICR type mice; male, group II, 100 μm/kg
  Amount of hemoglobin: →
  Hematocrit value: →
  Number of red blood cells: →
  Number of white blood cells: →
ICR type mice; male, group III, 1000 μg/kg
  Amount of hemoglobin: →
  Hematocrit value: →
  Number of red blood cells: →
ICR type mice; male, group III, 1000 μm/kg
  Number of white blood cells: →
[1]
  Power for fracture: Out of scale, so large

From patent US5001118A, “Method for preventing senescence and increasing bone mass” (priority 1986, dated 1991)
